Where a name gives a salt, the structure may show the parent alone.

Common to all, as to assay type: biochemical
The target in assay [1] is T1, recombinant human VAP-1 (Homo sapiens, UniProt Q16853).
T1 construct: purchased R&D systems
T1 sequence (Q16853 1-763): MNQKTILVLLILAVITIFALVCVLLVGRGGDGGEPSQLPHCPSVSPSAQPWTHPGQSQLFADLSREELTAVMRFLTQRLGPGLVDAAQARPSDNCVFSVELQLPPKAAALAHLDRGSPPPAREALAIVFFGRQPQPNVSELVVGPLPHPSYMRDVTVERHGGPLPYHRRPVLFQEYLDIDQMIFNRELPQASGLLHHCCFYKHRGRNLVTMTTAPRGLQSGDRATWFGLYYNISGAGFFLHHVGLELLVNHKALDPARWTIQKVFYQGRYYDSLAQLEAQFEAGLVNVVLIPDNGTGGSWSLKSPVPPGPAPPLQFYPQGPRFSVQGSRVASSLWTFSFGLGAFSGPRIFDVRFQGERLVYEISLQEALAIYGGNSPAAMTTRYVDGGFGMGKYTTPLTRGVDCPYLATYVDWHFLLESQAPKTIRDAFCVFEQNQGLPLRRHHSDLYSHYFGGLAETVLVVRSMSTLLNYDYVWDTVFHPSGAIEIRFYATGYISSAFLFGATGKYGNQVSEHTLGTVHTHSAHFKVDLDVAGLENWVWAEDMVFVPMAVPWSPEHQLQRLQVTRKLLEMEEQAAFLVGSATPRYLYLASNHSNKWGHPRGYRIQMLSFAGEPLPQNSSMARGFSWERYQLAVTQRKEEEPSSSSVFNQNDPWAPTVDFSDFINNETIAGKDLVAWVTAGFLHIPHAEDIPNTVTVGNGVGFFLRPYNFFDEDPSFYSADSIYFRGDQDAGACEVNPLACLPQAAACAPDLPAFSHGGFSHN
As to the kind of experiment: Activity on recombinant human VAP-1, HRP-coupled Amplex Red hydrogen peroxide assay. As to conditions: substrate 1 mM benzylamine; compound incubated with enzyme at 37° C. for 30 minutes; pH 7.4; read-out: Inhibitory Activity (IC50, nM) human VAP-1. Summed up: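 Dose-response IC50 determined from reduction in resorufin signal rate (544/590 nm, 1-2 h), with 30 min compound preincubation at 37 °C and 1 mM benzylamine as substrate.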

In assay [2] the target is T2, recombinant human MAO-A (monoamine oxidase-A) (Homo sapiens, UniProt P21397).
T2 construct: purchased Sigma-Aldrich
T2 sequence (P21397 1-527): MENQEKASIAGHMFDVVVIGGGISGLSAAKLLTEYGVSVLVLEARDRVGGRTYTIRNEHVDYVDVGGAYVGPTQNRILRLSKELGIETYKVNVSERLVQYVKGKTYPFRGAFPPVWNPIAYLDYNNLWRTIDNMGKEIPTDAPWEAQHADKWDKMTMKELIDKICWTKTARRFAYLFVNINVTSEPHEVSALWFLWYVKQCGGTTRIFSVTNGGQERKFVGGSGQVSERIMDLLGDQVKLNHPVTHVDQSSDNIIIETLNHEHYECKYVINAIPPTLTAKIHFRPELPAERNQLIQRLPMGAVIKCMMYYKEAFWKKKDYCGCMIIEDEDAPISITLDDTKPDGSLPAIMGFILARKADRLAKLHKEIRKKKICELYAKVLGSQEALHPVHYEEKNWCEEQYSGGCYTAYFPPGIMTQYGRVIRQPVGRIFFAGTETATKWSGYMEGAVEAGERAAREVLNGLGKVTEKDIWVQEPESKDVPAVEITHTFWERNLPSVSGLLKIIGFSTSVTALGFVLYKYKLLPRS
As to the kind of experiment: Activity on recombinant human MAO-A, method similar to the VAP-1 assay. The note with it: substrate 0.5 mM tyramine; read-out: Inhibitory Activity (IC50, nM) MAO-A. In outline:
(§1)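 Amplex Red/HRP coupled read-out of H2O2 with 0.5 mM tyramine for MAO-A or 1 mM benzylamine for MAO-B, following a 30-min compound–enzyme preincubation at 37° C. IC50 from percent inhibition of signal rate relative to uninhibited control.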

Assay [3] has as its target T3, recombinant human MAO-B (monoamine oxidase-B) (Homo sapiens, UniProt P27338).
T3 construct: purchased Sigma-Aldrich
T3 sequence (P27338 1-520): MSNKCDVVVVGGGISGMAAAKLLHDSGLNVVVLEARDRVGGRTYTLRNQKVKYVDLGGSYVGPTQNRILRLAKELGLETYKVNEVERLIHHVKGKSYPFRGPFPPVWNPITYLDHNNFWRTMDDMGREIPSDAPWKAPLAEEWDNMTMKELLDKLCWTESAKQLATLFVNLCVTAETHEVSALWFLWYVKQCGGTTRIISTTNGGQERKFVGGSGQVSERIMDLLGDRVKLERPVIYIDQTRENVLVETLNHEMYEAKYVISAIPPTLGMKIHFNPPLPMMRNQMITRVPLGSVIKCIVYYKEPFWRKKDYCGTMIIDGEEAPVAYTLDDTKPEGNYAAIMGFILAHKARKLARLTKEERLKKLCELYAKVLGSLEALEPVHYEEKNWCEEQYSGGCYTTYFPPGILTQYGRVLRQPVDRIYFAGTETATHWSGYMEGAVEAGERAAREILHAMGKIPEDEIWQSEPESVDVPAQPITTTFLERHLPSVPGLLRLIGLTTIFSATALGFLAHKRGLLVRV
As to the kind of experiment: Activity on recombinant human MAO-B, method similar to the VAP-1 assay. As to conditions: substrate 1 mM benzylamine; read-out: Inhibitory Activity (IC50, nM) MAO-B. In outline:
as §1

In assay [4] the target is T4, recombinant human DAO (diamine oxidase) (Homo sapiens, UniProt P19801).
T4 construct: purchased R&D systems
T4 sequence (P19801 20-751): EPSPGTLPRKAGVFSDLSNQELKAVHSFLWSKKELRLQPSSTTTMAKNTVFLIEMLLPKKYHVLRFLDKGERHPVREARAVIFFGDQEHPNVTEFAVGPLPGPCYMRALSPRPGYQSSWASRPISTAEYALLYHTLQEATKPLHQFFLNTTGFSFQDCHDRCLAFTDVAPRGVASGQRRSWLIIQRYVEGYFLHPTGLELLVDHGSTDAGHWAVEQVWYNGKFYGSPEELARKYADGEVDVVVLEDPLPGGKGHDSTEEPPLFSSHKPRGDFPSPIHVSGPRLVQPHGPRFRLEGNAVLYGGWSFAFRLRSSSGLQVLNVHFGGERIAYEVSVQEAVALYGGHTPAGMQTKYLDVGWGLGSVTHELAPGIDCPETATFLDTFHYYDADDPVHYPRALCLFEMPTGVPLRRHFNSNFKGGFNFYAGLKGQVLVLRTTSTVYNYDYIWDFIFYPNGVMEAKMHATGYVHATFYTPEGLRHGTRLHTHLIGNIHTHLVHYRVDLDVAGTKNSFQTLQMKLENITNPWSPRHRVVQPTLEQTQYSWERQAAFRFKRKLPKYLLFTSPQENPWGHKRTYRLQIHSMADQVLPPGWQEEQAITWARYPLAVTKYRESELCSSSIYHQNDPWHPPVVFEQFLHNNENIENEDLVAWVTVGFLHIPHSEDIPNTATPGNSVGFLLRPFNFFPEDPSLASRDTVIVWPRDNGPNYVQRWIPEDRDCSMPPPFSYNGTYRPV
As to the kind of experiment: Activity on recombinant human DAO, method similar to the VAP-1 assay. The note with it: substrate 1 mM putrescine; read-out: Inhibitory Activity (IC50, nM) DAO. Summed up:
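Inhibition of recombinant human diamine oxidase (DAO, R&D systems) was assessed by the same approach as the VAP-1 assay, using 1 mM putrescine as substrate. Hydrogen peroxide formed was detected through an HRP-coupled Amplex Red reaction yielding fluorescent resorufin, read at 544 nm excitation and 590 nm emission. IC50 values came from four-parameter logistic fitting in GraphPad Prism.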

Regarding `NC/C(=C\F)Cn1ncn(Cc2ccc(-c3cc(F)c4c(c3)CC(=O)N4)s2)c1=O` [Example 71, 5-[5-[[1-[(E)-2-(aminomethyl)-3-fluoro-allyl]-5-oxo-1,2,4-triazol-4-yl]methyl]-2-thienyl]-7-fluoro-indolin-2-one hydrochloride], the IC50 was 0.2 nM in assay [1], > 100000 nM in assay [2], > 10000 nM in assay [3] and 530 nM in assay [4].
The matching figures for `NC/C(=C\F)Cn1ncn(Cc2ccc(-c3cc4c(c(C(F)(F)F)c3)NC(=O)CC4)s2)c1=O` [Example 81, 6-[5-[[1-[(E)-2-(aminomethyl)-3-fluoro-allyl]-5-oxo-1,2,4-triazol-4-yl]methyl]-2-thienyl]-8-(trifluoromethyl)-3,4-dihydro-1H-quinolin-2-one]: 0.18 nM, > 100000 nM, 430 nM and 68 nM.
On to `CC(C)n1nccc1-c1ccc(Cn2cnn(C/C(=C/F)CN)c2=O)s1` [Example 161, 2-[(2E)-2-(aminomethyl)-3-fluoroprop-2-en-1-yl]-4-({5-[1-(propan-2-yl)-1H-pyrazol-5-yl]thiophen-2-yl}methyl)-2,4-dihydro-3H-1,2,4-triazol-3-one], for which the half-inhibitory concentration (IC50) in assay [1] was 3.7 nM; in assay [2] it was > 100000 nM; in assay [3], 15 nM; in assay [4], 4300 nM.
Regarding `NC/C(=C\F)Cn1ncn(Cc2ccc(-c3ccc4c(c3F)NCCO4)s2)c1=O` [Example 106, 2-[(E)-2-(aminomethyl)-3-fluoro-allyl]-4-[[5-(5-fluoro-3,4-dihydro-2H-1,4-benzoxazin-6-yl)-2-thienyl]methyl]-1,2,4-triazol-3-one], the half-maximal inhibitory concentration (IC50) in assay [1] worked out at 0.8 nM; in assay [2] it was 11000 nM; in assay [3], 250 nM; in assay [4], 2500 nM.
The matching figures for `NC/C(=C\F)Cn1ncn(Cc2ccc(-c3ccc(S(=O)(=O)NC4CC4)cc3)s2)c1=O` [Example 197, 4-[5-({1-[(2E)-2-(aminomethyl)-3-fluoroprop-2-en-1-yl]-5-oxo-1,5-dihydro-4H-1,2,4-triazol-4-yl}methyl)thiophen-2-yl]-N-cyclopropylbenzenesulfonamide]: 2 nM, > 100000 nM, 2700 nM and 340 nM.
The like results for `COC(=O)c1ccc(-c2ccc(Cn3cnn(C/C(=C/F)CN)c3=O)s2)cc1F` [Example 12, methyl 4-[5-(1-[(2E)-2-(aminomethyl)-3-fluoroprop-2-en-1-yl]-5-oxo-1,5-dihydro-4H-1,2,4-triazol-4-ylmethyl)thiophen-2-yl]-2-fluorobenzoate hydrochloride] were, in that order, 1.8 nM, > 100000 nM, 110 nM and 200 nM.
Take `NC/C(=C\F)Cn1ncn(Cc2ccc(-c3c[nH]c4ncccc34)s2)c1=O` [Example 115, 2-[(2E)-2-(aminomethyl)-3-fluoroprop-2-en-1-yl]-4-[5-(1H-pyrrolo[2,3-b]pyridin-3-yl)thiophen-2-yl]methyl-2,4-dihydro-3H-1,2,4-triazol-3-one hydrochloride]: the half-inhibitory concentration (IC50) is 0.7 nM in assay [1], > 100000 nM in assay [2], 120 nM in assay [3] and 860 nM in assay [4].
As for `NC/C(=C\F)Cn1ncn(CCc2cccs2)c1=O` [Example 141, 2-[(2E)-2-(aminomethyl)-3-fluoroprop-2-en-1-yl]-4-[2-(thiophen-2-yl)ethyl]-2,4-dihydro-3H-1,2,4-triazol-3-one], the IC50 was 9.2 nM in assay [1], > 100000 nM in assay [2], > 10000 nM in assay [3] and 4200 nM in assay [4].
The like results for `NC/C(=C\F)Cn1ncn(Cc2ccc(-c3cccc(-c4noc(C5CC5)n4)c3)s2)c1=O` [Example 36, 2-[(2E)-2-(aminomethyl)-3-fluoroprop-2-en-1-yl]-4-(5-[3-(5-cyclopropyl-1,2,4-oxadiazol-3-yl)phenyl]thiophen-2-ylmethyl)-2,4-dihydro-3H-1,2,4-triazol-3-one hydrochloride] were, in that order, 0.7 nM, > 100000 nM, 101 nM and 344 nM.
Turning to `NC/C(=C\F)Cn1ncn(Cc2ccc(-c3ccc4c(c3)OCC(=O)N4)s2)c1=O` [Example 84, 7-[5-(1-[(2E)-2-(aminomethyl)-3-fluoroprop-2-en-1-yl]-5-oxo-1,5-dihydro-4H-1,2,4-triazol-4-ylmethyl)thiophen-2-yl]-2H-1,4-benzoxazin-3(4H)-one hydrochloride], the IC50 was 0.2 nM in assay [1], 63000 nM in assay [2], > 10000 nM in assay [3] and 1300 nM in assay [4].
The matching figures for `Cc1c(-c2ccc(Cn3cnn(C/C(=C/F)CN)c3=O)s2)ccc2c1COC(=O)N2` [Example 102, 6-[5-[[1-[(E)-2-(aminomethyl)-3-fluoro-allyl]-5-oxo-1,2,4-triazol-4-yl]methyl]-2-thienyl]-5-methyl-1,4-dihydro-3,1-benzoxazin-2-one]: 0.2 nM, > 100000 nM, 480 nM and 760 nM.
